Values of other authors in article PMC3526234 (Diabetes Care, 2012).

Tested on: patients with diabetic gastroparesis
Settings: intravenous erythromycin, 10 patients with diabetic gastroparesis

CC[C@H]1OC(=O)[C@H](C)[C@@H](O[C@H]2C[C@@](C)(OC)[C@@H](O)[C@H](C)O2)[C@H](C)[C@@H](O[C@@H]2O[C@H](C)C[C@H](N(C)C)[C@H]2O)[C@](C)(O)C[C@@H](C)C(=O)[C@H](C)[C@@H](O)[C@]1(C)O [erythromycin]
estimated effect relative to placebo on percent retained at 60 min: 75%
